Patent publication US20050215551A1, “1-[2H-1-benzopyran-2-one-8-yl]- piperazine derivatives for the treatment of movement disorders” (SOLVAY PHARMACEUTICALS B.V., priority 2004, published 2005)
“Also recorded” adds a separate entry of the source. Where two headings read alike, the source gives them in different places.

What was measured:
DBA/2 mice [1] = assay: Anticonvulsant activity: audiogenic seizures in DBA/2 mice; assay type: in vivo; conditions: for effect on tonic phase of audiogenic seizures / effect on clonic phase of audiogenic seizures / effect on tonic and clonic phase of audiogenic seizures: 30 min after i.p. administration; for ED50: Mus musculus, ip, 0.5 h, 30 minutes after drug administration; for behavioural changes: all dosages tested
Text: DBA/2 mice weighing 6-12 g (22-26 days old; either sex, Harlan Italy Correzzana, Milano, Italy) are housed in groups of 8-10 under a 12-h light/dark cycle (lights on at 7:00 a.m.) with food and water available ad libitum. The experimental protocol is approved by University of Catanzaro Ethical Committee. All procedures are in compliance with the Nationals Institutes of Health Guide for Care and Use of Laboratory Animals (Publication No. 85-23, revised 1985) and European Communities Council Directive of 24 Nov. 1986 (86/609 EEC).
The experiments are performed according to the method previously described by De Sarro et al. (1984), Eur. J. Pharmacol., 104, 55-60. Compounds of the invention or vehicle (controls) are given intraperitoneally (i.p.) and orally (p.o.) as freshly sonicated solutions in methylcellulose 1%. For the […]; pretreatment time at 30 and 60 min., For oral treatment, all animals are pretreated either at 30 or 60 min using the compounds of the invention at doses of 0.1, 0.3, 3, 6 and 10 mg/kg p.o. At least 10 mice per dose are used. After pretreatment time, each mouse is placed under a hemispheric perspex dome (58 cm in diameter) and 1 min is allowed for habituation and assessment of locomotor activity. Animals are challenged with a 12-16 kHz sinusoidal tone at 109 dB. Seizure response is assessed by two independent observers. The sound evoked behaviour is coded using the following scale: 0=no response, 1=wild running, 2=clonus, 3=tonic flexor and/or extensor; 4=respiratory arrest, on the basis of the concordant opinion of the observers. […] The maximum response is recorded for each animal. Rectal temperature is recorded immediately prior to auditory testing using an Elektrolaboratoriet thermometer type T.E.3. Behavioral changes are observed during the period between drug administration and auditory testing. In these experiments separate vehicle-treated and drug-treated groups are used at each pretreatment time (15 min-60 min). Percentage of mice showing wild running, clonic or tonic phase and the duration of anticonvulsant activity are compared to control group and statistically analyzed.
Statistical comparison between groups of control and drug-treated DBA/2 mice is made using Fisher's exact probability test (incidence of the seizure phases). The percentage incidence of each phase of the audiogenic seizure is determined for each drug. These values are plotted against the corresponding doses by a computer construction of the dose-effect curves for calculation of ED50 (with 95% confidence limits). The ED50 values for each compound are calculated using a computer program of the method of Litchfield and Wilcoxon (1949). At least 32 animals are used to calculate each ED50 value.
For systemic injections and oral administrations, all compounds are given intraperitoneally (0.1 ml/10 g of body weight of the mouse) as a freshly prepared solution in methylcellulose 1%. In order to avoid the light sensitivity, weighing and handling are carried out under sodium vapor lamps and the substances are protected from light during the experiments.

DBA/2 mice [2] = assay: Interaction studies in DBA/2 mice: Compound 1 + vehicle, sumatriptan or SB 258741 (audiogenic seizures); assay type: in vivo; conditions: pre-treatment 3 mg/kg, i.p.; for effect of pre-treatment on the anti-epileptic activity (dose-response curve) of Compound 1: 5 min before Compound 1
Experimental: The experiments are performed according to the method previously described by De Sarro et al. (1984), Eur. J. Pharmacol., 104, 55-60. Compounds of the invention or vehicle (controls) are given intraperitoneally (i.p.) and orally (p.o.) as freshly sonicated solutions in methylcellulose 1%. For the i.p. treatment compounds of the invention are given at doses of 0.1, 0.3, 3, 10, 15, 20 and 30 mg/kg; pretreatment time at 30 and 60 min., For oral treatment, all animals are pretreated either at 30 or 60 min using the compounds of the invention at doses of 0.1, 0.3, 3, 6 and 10 mg/kg p.o. At least 10 mice per dose are used. After pretreatment time, each mouse is placed under a hemispheric perspex dome (58 cm in diameter) and 1 min is allowed for habituation and assessment of locomotor activity. Animals are challenged with a 12-16 kHz sinusoidal tone at 109 dB. Seizure response is assessed by two independent observers. The sound evoked behaviour is coded using the following scale: 0=no response, 1=wild running, 2=clonus, 3=tonic flexor and/or extensor; 4=respiratory arrest, on the basis of the concordant opinion of the observers. […] The maximum response is recorded for each animal. Rectal temperature is recorded immediately prior to auditory testing using an Elektrolaboratoriet thermometer type T.E.3. Behavioral changes are observed during the period between drug administration and auditory testing. In these experiments separate vehicle-treated and drug-treated groups are used at each pretreatment time (15 min-60 min). Percentage of mice showing wild running, clonic or tonic phase and the duration of anticonvulsant activity are compared to control group and statistically analyzed.

5-HT1A = target: T1, 5-HT1A (Rattus norvegicus, UniProt P19327); assay: In vivo 5-HT1A agonism: lower lip retraction (LLR); conditions: 60 minutes after oral administration
T1 construct: from tissue; host or cells: whole animal (in vivo behavioural test)
Experimental: Lower lip retraction was measured according to the method described by Berendsen et al., (Pharmacol. Biochem. Behav. 33, (1989), 821-827).

[3] = i.p. administration, read-out: ED50 Clonic seizures
[4] = i.p. administration, read-out: ED50 Tonic extension
[5] = i.p. administration, read-out: ED50 Wild running

T1 sequence (P19327 whole entry): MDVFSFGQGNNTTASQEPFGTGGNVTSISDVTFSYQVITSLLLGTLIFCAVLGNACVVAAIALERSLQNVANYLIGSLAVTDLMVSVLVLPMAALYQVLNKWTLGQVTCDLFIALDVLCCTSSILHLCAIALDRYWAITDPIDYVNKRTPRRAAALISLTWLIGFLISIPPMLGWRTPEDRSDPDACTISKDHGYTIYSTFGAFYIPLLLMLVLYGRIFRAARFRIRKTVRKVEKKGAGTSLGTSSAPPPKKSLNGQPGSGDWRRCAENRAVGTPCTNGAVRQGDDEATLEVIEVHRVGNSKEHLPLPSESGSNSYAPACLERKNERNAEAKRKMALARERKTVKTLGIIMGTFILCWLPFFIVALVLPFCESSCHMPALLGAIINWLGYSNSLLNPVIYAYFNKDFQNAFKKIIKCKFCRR

ED50 (5-HT1A) [mg/kg]	SMILES	effect on tonic phase of audiogenic seizures (DBA/2 mice [1]; 15 mg/kg)	effect on clonic phase of audiogenic seizures (DBA/2 mice [1]; 1, 3, 10 and 15 mg/kg)	ED50 (DBA/2 mice [1]; [3]) [mg/kg]	ED50 (DBA/2 mice [1]; [4]) [mg/kg]	ED50 (DBA/2 mice [1]; [5]) [mg/kg]	behavioural changes (DBA/2 mice [1]; i.p. administration)	effect of pre-treatment on the anti-epileptic activity (dose-response curve) of Compound 1 (DBA/2 mice [2])	effect on tonic phase of audiogenic seizures (DBA/2 mice [1]; 0.3, 1, 3, 10 mg/kg)	effect on clonic phase of audiogenic seizures (DBA/2 mice [1]; 0.3, 1, 3, 10, 15 and 20 mg/kg)	effect on tonic phase of audiogenic seizures (DBA/2 mice [1]; 15 and 20 mg/kg)	ED50 (DBA/2 mice [1]; read-out: ED50 Tonic extension, i.p. administration) [mg/kg]	potency in shifting the dose-response curve of Compound 1, compared (DBA/2 mice [2]; 5 min before)	effect on tonic and clonic phase of audiogenic seizures (DBA/2 mice [1]; 0.3, 1, 3, 5 and 7,5 mg/kg)	effect on tonic and clonic phase of audiogenic seizures (DBA/2 mice [1]; 10 and 15 mg/kg)
–	Cc1cccc(S(=O)(=O)N2CCC[C@@H]2CCN2CCC(C)CC2)c1 [SB258741]	able to significantly (P<0.01) antagonize	did not significantly antagonize	> 15	~12	> 15	At none of the dosages tested	shift the dose-response curve of COMPOUND 1 to the right; also recorded: partly antagonized	–	–	–	–	–	–	–
–	CCCN(CCC)C1CCc2cccc(O)c2C1 (centres unmarked) [Compound 8-OH-DPAT, 8-hydroxy-2-(di-n-propylamino)tetralin]	–	–	> 20	–	> 20	At none of the dosages tested	–	did not significantly antagonized	did not significantly antagonized	able to significantly (P<0.01 and P<0.05) antagonize	15	–	–	–
–	CNS(=O)(=O)Cc1ccc2[nH]cc(CCN(C)C)c2c1 [sumatriptan, reference compound]	–	–	–	–	–	–	shift the dose-response curve of COMPOUND 1 to the right; also recorded: partly antagonized	–	–	–	–	more potent than SB 258741	–	–
0.22	O=C(NCCN1CCN(c2cccc3c2OC[C@H](CO)O3)CC1)c1ccc(F)cc1 [flesinoxan]	–	–	9.37	7.74	> 15	At none of the dosages tested	–	–	–	–	–	–	did not significantly antagonized	able to significantly (P<0.0.1) antagonize
